# Source: ChEMBL document CHEMBL3351471, “Antileishmanial metabolites from Geosmithia langdonii” (J Nat Prod, 2014)
# System: Leishmania donovani
# Test: Antileishmanial activity against promastigote forms of Leishmania donovani by alamar blue assay
# Type: functional, organism-based
Structure (SMILES),IC90 [µM],IC50 [µM]
C[C@@H]1[C@H](O)[C@@H](C)/C=C/C=C/C=C/C=C/C=C/C=C/C=C/[C@H](O[C@@H]2O[C@H](C)[C@@H](O)[C@H](N)[C@@H]2O)C[C@@H]2O[C@](O)(C[C@@H](O)C[C@@H](O)[C@H](O)CC[C@@H](O)C[C@@H](O)CC(=O)O[C@H]1C)C[C@H](O)[C@H]2C(=O)O [AMPHOTERICIN B],0.4,–
CC1=C[C@H](O)[C@H]2O[C@H]2C1=O,10.8,6.9
OCc1cccc(O)c1,52.3,34
Cc1cccc(O)c1 [METACRESOL],12.4,9.2
OCc1cc(O)cc(O)c1Cc1ccc(O)c(O)c1,22,13
O=Cc1cc(O)ccc1O,6.1,3.3
"CC1=C[C@@H](O)[C@H](O)CC1=O (single isomer, unassigned)",61,47.3
N=C(N)c1ccc(OCCCCCOc2ccc(C(=N)N)cc2)cc1 [PENTAMIDINE],5.9,3.2
OCc1cc(O)ccc1O [GENTISYL ALCOHOL],10.4,8.5

# System: Staphylococcus aureus
# Test: Antimicrobial activity against methicillin-resistant Staphylococcus aureus ATCC 33591
# Type: functional, organism-based
row,Structure (SMILES),IC50 [µM]
1,Cc1ccc(O)c(O)c1,72.9

# System: Staphylococcus aureus
# Test: Antimicrobial activity against Staphylococcus aureus ATCC 29213
# Type: functional, organism-based
row,Structure (SMILES),IC50 [µM]
1,Cc1ccc(O)c(O)c1,148
